Reference: paper PMC3914206

Columns and labels:
Type in all cases: binding
Settings in all cases: Compound Concentration 10 µM
panel of 442 kinases [1] = target: T1, panel of 442 kinases (Homo sapiens, UniProt P24723)
T1 construct: purchased KINOMEscan
Description: (§1) We assessed the selectivity of members of this scaffold using the KINOMEscan methodology across a near comprehensive panel of 442 kinases [[18,27]].

panel of 442 kinases [2] = target: T2, panel of 442 kinases (Homo sapiens, UniProt Q8IY84)
T2 construct: purchased KINOMEscan
T2 sequence (Q8IY84 whole entry): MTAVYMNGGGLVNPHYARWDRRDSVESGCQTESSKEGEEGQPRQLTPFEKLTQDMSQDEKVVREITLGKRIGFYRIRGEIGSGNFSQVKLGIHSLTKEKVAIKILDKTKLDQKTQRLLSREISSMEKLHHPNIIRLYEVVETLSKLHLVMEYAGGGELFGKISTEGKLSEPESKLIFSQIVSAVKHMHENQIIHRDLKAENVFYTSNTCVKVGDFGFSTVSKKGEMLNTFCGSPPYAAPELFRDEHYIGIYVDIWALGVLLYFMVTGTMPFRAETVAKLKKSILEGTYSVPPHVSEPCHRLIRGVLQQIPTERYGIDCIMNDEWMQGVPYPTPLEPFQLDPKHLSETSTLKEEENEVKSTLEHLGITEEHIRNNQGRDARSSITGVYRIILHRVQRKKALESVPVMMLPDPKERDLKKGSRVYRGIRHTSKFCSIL
Description: as §1

panel of 442 kinases [3] = target: T3, panel of 442 kinases (Homo sapiens, UniProt P10721, L576P)
T3 construct: purchased KINOMEscan
T3 sequence (P10721 26-976 L576P): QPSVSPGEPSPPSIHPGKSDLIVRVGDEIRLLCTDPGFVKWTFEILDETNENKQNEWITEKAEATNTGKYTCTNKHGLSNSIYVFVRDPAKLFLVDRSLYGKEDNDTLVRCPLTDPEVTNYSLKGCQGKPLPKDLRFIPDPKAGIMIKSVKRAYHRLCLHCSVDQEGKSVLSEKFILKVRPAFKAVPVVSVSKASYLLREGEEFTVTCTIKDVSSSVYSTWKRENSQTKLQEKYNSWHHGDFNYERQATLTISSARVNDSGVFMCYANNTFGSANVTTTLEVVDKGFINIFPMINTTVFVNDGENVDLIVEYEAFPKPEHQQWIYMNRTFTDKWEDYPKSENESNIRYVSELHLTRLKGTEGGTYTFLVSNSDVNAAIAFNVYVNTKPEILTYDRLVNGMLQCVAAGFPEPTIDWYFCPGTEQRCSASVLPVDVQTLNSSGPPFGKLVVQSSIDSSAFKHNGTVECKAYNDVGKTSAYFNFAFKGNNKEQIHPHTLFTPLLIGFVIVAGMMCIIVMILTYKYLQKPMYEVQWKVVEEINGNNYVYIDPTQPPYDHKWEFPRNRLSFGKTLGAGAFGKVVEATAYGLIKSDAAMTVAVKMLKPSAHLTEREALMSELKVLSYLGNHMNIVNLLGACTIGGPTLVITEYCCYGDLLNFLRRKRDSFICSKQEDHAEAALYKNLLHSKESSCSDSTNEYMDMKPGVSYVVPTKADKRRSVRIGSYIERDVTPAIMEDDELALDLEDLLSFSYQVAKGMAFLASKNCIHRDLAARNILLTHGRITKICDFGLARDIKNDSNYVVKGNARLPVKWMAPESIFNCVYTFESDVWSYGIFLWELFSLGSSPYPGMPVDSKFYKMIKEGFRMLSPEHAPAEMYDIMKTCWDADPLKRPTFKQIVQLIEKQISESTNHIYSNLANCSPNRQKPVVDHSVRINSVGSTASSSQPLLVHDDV
Description: as §1

panel of 442 kinases [4] = target: T4, panel of 442 kinases (Homo sapiens, UniProt Q9NQU5)
T4 construct: purchased KINOMEscan
T4 sequence (Q9NQU5 whole entry): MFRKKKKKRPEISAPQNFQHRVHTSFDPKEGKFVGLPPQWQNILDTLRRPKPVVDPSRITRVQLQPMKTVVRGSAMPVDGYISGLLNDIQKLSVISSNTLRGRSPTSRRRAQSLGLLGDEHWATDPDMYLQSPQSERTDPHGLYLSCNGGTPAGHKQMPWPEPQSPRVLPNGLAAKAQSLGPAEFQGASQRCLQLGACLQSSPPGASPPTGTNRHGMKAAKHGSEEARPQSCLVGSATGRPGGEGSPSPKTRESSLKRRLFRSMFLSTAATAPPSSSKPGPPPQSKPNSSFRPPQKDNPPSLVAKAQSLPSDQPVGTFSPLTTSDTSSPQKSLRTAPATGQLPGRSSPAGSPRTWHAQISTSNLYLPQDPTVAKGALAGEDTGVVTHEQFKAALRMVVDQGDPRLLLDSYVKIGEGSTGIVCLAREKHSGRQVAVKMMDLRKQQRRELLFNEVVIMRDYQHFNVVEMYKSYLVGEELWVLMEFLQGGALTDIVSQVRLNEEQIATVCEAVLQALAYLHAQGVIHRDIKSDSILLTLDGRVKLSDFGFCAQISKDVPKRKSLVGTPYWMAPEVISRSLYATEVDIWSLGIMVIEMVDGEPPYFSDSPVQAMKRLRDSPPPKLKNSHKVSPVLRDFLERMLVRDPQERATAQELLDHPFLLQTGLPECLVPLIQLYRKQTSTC
Description: as §1

T1 sequence (P24723 whole entry): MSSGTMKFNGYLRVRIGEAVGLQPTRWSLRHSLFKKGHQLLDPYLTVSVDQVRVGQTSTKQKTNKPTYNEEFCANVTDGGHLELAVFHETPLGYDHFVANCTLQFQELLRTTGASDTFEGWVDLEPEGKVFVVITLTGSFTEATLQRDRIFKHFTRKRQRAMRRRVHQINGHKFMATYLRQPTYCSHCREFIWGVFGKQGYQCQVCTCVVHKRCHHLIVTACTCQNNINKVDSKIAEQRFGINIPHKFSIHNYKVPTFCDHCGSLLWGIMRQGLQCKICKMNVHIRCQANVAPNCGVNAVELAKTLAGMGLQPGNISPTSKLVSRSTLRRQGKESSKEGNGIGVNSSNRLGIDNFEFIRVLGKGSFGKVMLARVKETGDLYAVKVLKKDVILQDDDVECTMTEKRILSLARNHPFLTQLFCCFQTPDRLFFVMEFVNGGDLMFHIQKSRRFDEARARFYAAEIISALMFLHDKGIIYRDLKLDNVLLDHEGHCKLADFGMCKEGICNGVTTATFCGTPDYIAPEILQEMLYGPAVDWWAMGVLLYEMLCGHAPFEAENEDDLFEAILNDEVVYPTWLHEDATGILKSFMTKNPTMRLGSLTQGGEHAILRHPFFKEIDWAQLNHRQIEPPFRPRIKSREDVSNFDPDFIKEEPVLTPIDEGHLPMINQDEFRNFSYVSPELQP

SMILES | KINOMEscan: PRKCH (panel of 442 kinases [1]) | KINOMEscan: NIM1 (panel of 442 kinases [2]) | KINOMEscan: KIT(L576P) (panel of 442 kinases [3]) | KINOMEscan: PAK6 (panel of 442 kinases [4])
COc1cc(C(=O)N2CCC(N3CCN(C)CC3)CC2)ccc1Nc1ncc2c(n1)N1CCc3cccc(c31)C(=O)N2C [Compound 24] | 84 |  |  | 
CCOc1cc(C(=O)N2CCC(N3CCN(C)CC3)CC2)ccc1Nc1ncc2c(n1)N(C1CCCC1)c1ccccc1C(=O)N2C [Compound 26] | 100 | 100 | 100 | 100
COc1cc(C(=O)N2CCC(N3CCN(C)CC3)CC2)ccc1Nc1ncc2c(n1)N(C1CCCC1)c1ccccc1C(=O)N2C [Compound 25, 11-cyclopentyl-2-((2-methoxy-4-(4-(4-methylpiperazin-1-yl)piperidine-1-carbonyl)phenyl)amino)-5-methyl-5H-benzo[e]pyrimido[5,4-b][1,4]diazepin-6(11H)-one] | 100 | 100 | 93 | 86
COc1cc(C(=O)N2CCC(N3CCN(C)CC3)CC2)ccc1Nc1ncc2c(n1)N(C)c1ccccc1C(=O)N2C [15 (LRRK2-IN-1)] | 100 | 100 | 100 | 98
